Experimental findings from patent US8481584B2, “1H-thieno[2,3-c]pyrazole derivatives useful as kinase inhibitors” (Nerviano Medical Sciences S.R.L., priority 2004, dated 2013) are described below.

Broadly, the IC50 is the point on the concentration scale where inhibition reaches its midpoint.

This assay concerns the target T1, Aurora-2 (Homo sapiens, UniProt O14965).
T1 sequence (O14965 1-403): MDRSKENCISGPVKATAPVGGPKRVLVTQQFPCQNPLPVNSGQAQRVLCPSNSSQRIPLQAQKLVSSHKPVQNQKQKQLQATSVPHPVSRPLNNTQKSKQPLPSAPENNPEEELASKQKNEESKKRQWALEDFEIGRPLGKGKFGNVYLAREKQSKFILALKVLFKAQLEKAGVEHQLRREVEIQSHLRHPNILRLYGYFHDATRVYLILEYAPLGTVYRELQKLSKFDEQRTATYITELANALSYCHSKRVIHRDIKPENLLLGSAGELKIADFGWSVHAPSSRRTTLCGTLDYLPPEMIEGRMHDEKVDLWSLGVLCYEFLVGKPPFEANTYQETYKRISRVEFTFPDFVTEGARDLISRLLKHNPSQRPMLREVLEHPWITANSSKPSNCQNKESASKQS
The experiment in a line: Inhibition assay of Aurora-2 activity (SPA technology). As to conditions: screened according to the methods of the pharmacology section; read-out: IC50 values for Aurora-2 inhibition. The class given is biochemical. The procedure: The inhibiting activity and the potency of selected compounds is determined through a method of assay based on the use of the SPA technology (Amersham Pharmacia Biotech).
The assay consists of the transfer of radioactivity labelled phosphate moiety by the kinase to a biotinylated substrate. The resulting 33P-labelled biotinylated product is allowed to bind to streptavidin-coated SPA beads (biotin capacity 130 pmol/mg), and light emitted was measured in a scintillation counter.
Inhibition Assay of Aurora-2 Activity
After 60 minutes at room temperature incubation, reaction was stopped and biotinylated peptide captured by adding 100 μl of bead suspension.
Stratification: 100 μl of CsCl2 5 M were added to each well and let stand 4 hour before radioactivity was counted in the Top-Count instrument.
Experimental data were analyzed by the computer program GraphPad Prizm using the four parameter logistic equation: y=bottom+(top−bottom)/(1+10^((logIC50−x)*slope)) where x is the logarithm of the inhibitor concentration, y is the response; y starts at bottom and goes to top with a sigmoid shape.
`CC(C)(NC(=O)c1cc2c(NC(=O)c3ccc(CN4CCOCC4)cc3)n[nH]c2s1)c1cccc(F)c1` [Compound 42, 3-(4-Morpholin-4-ylmethyl-benzoylamino)-1H-thieno[2,3-c]pyrazole-5-carboxylic acid [1-(3-fluoro-phenyl)-1-methyl-ethyl]-amide]: the 50% inhibitory concentration (IC50) is less than 20 nM.

For the molecule `O=C(Nc1n[nH]c2sc(C(=O)NC3(c4ccccc4)CC3)cc12)c1ccc(F)cc1` [Compound 7, 3-[(4-fluorobenzoyl)amino]-N-(1-phenylcyclopropyl)-1H-thieno[2,3-c]pyrazole-5-carboxamide], the half-maximal inhibitory concentration (IC50) is less than 20 nM.

In the case of `CC(C)(NC(=O)c1cc2c(NC(=O)c3ccc(CN4CCS(=O)(=O)CC4)cc3)n[nH]c2s1)c1ccccc1` [Compound 41, 3-[4-(1,1-Dioxo-1-thiomorpholin-4-ylmethyl)-benzoylamino]-1H-thieno[2,3-c]pyrazole-5-carboxylic acid(1-methyl-1-phenyl-ethyl)-amide], the half-maximal inhibitory concentration (IC50) is less than 20 nM.

With `C[C@](CN1CCOCC1)(NC(=O)c1cc2c(NC(=O)c3ccc(N4CCOCC4)cc3)n[nH]c2s1)c1ccccc1` [Compound 137, 3-(4-Morpholin-4-yl-benzoylamino)-1H-thieno[2,3-c]pyrazole-5-carboxylic acid ((S)-1-methyl-2-morpholin-4-yl-1-phenyl-ethyl)-amide], the IC50 is less than 20 nM.

As to `CC(C)(NC(=O)c1cc2c(NC(=O)c3ccc(CN4CCCCC4)cc3)n[nH]c2s1)c1cccc(F)c1` [Compound 51, 3-(4-Piperidin-1-ylmethyl-benzoylamino)-1H-thieno[2,3-c]pyrazole-5-carboxylic acid [1-(3-fluoro-phenyl)-1-methyl-ethyl]-amide], the IC50 is less than 20 nM.

`CC(C)(NC(=O)c1cc2c(NC(=O)c3ccco3)n[nH]c2s1)c1ccccc1` [Compound 24, 3-(2-furoylamino)-N-(1-methyl-1-phenylethyl)-1H-thieno[2,3-c]pyrazole-5-carboxamide]: the IC50 was less than 20 nM.

In the case of `CC(C)(NC(=O)c1cc2c(NC(=O)c3ccc(F)cc3)n[nH]c2s1)c1ccccc1` [Compound 8, 3-[(4-fluorobenzoyl)amino]-N-(1-methyl-1-phenylethyl)-1H-thieno[2,3-c]pyrazole-5-carboxamide], the IC50 was less than 20 nM.

Turning to `CN1CCN(c2ccc(C(=O)Nc3n[nH]c4sc(C(=O)NC5(c6ccccc6)CC5)cc34)cc2)CC1` [Compound 35, 3-{[4-(4-methylpiperazin-1-yl)benzoyl]amino}-N-(1-phenylcyclopropyl)-1H-thieno[2,3-c]pyrazole-5-carboxamide], the IC50 is less than 20 nM.

On to `C[C@@H](NC(=O)c1cc2c(NC(=O)c3ccc(F)cc3)n[nH]c2s1)c1ccc(F)cc1` [Compound 11, 3-[(4-fluorobenzoyl)amino]-N-[(1R)-1-(4-fluorophenyl)ethyl]-1H-thieno[2,3-c]pyrazole-5-carboxamide], for which the IC50 was less than 20 nM.

For `CC(C)N(C)Cc1ccc(C(=O)Nc2n[nH]c3sc(C(=O)NC(C)(C)c4ccccc4)cc23)cc1` [Compound 64, 3-{4-[(Isopropyl-methyl-amino)-methyl]benzoylamino}-1H-thieno[2,3-c]pyrazole-5-carboxylic acid (1-methyl-1-phenyl-ethyl)-amide], the IC50 was less than 20 nM.

Turning to `CN1CCN(c2ccc(C(=O)Nc3n[nH]c4sc(C(=O)NC(C)(C)c5cccc(Cl)c5)cc34)cc2)CC1` [Compound 132, 3-[4-(4-Methyl-piperazin-1-yl)-benzoylamino]-1H-thieno[2,3-c]pyrazole-5-carboxylic acid[1-(3-chloro-phenyl)-1-methyl-ethyl]amide], the IC50 was less than 20 nM.

Turning to `CC(C)(NC(=O)c1cc2c(NC(=O)c3ccc(S(C)(=O)=O)cc3)n[nH]c2s1)c1ccccc1` [Compound 143, 3-(4-Methanesulfonyl-benzoylamino)-1H-thieno[2,3-c]pyrazole-5-carboxylic acid(1-methyl-1-phenyl-ethyl)-amide], the IC50 was less than 20 nM.

Regarding `CC(C)(NC(=O)c1cc2c(NC(=O)c3ccc(CN4CCSC4)cc3)n[nH]c2s1)c1ccccc1` [Compound 49, 3-(4-Thiazolidin-3-ylmethyl-benzoylamino)-1H-thieno[2,3-c]pyrazole-5-carboxylic acid (1-methyl-1-phenyl-ethyl)-amide], the IC50 was less than 20 nM.

Regarding `CN1CCN(c2ccc(C(=O)Nc3n[nH]c4sc(C(=O)NC5(c6ccccc6)CCCC5)cc34)cc2)CC1` [Compound 34, 3-{[4-(4-methylpiperazin-1-yl)benzoyl]amino}-N-(1-phenylcyclopentyl)-1H-thieno[2,3-c]pyrazole-5-carboxamide], the half-maximal inhibitory concentration (IC50) was less than 20 nM.

With `O=C(Nc1n[nH]c2sc(C(=O)NC3(c4ccccc4)CCCC3)cc12)c1ccc(N2CCOCC2)cc1` [Compound 131, 3-(4-Morpholin-4-yl-benzoylamino)-1H-thieno[2,3-c]pyrazole-5-carboxylic acid (1-phenyl-cyclopentyl)-amide], the IC50 was less than 20 nM.

For the molecule `O=C(Nc1n[nH]c2sc(C(=O)NC3(c4ccccc4)CC3)cc12)c1cccs1` [Compound 18, N-(1-phenylcyclopropyl)-3-[(thien-2-ylcarbonyl)amino]-1H-thieno[2,3-c]pyrazole-5-carboxamide], the half-inhibitory concentration (IC50) is less than 20 nM.

Turning to `CC(C)(NC(=O)c1cc2c(NC(=O)c3ccc(Cn4ccnc4)cc3)n[nH]c2s1)c1ccccc1` [Compound 48, 3-(4-Imidazol-1-ylmethyl-benzoylamino)-1H-thieno[2,3-c]pyrazole-5-carboxylic acid (1-methyl-1-phenyl-ethyl)-amide], the IC50 is less than 20 nM.

Regarding `O=C(Nc1n[nH]c2sc(C(=O)NC3(c4ccccc4)CC3)cc12)c1ccco1` [Compound 23, 3-(2-furoylamino)-N-(1-phenylcyclopropyl)-1H-thieno[2,3-c]pyrazole-5-carboxamide], the IC50 is less than 20 nM.

For `CC(C)(NC(=O)c1cc2c(NC(=O)c3ccc(CNC4CCCC4)cc3)n[nH]c2s1)c1ccccc1` [Compound 65, 3-(4-Cyclopentylaminomethyl-benzoylamino)-1H-thieno[2,3-c]pyrazole-5-carboxylic acid (1-methyl-1-phenyl-ethyl)-amide], the IC50 was less than 20 nM.

For the molecule `CC[C@@H](NC(=O)c1cc2c(NC(=O)c3cccs3)n[nH]c2s1)c1ccccc1` [Compound 20, N-[(1R)-1-phenylpropyl]-3-[(thien-2-ylcarbonyl)amino]-1H-thieno[2,3-c]pyrazole-5-carboxamide], the IC50 was less than 20 nM.

Regarding `CC(C)(NC(=O)c1cc2c(NC(=O)c3ccc(N4CCOCC4)cc3)n[nH]c2s1)c1ccc(F)cc1` [Compound 150, 3-(4-Morpholin-4-yl-benzoylamino)-1H-thieno[2,3-c]pyrazole-5-carboxylic acid [1-(4-fluoro-phenyl)-1-methyl-ethyl]-amide], the IC50 was less than 20 nM.

As to `CN1CCN(c2ccc(C(=O)Nc3n[nH]c4sc(C(=O)N[C@H](CN5CCOCC5)c5ccccc5)cc34)cc2)CC1` [Compound 31, 3-{[4-(4-methylpiperazin-1-yl)benzoyl]amino}-N-[(1S)-2-morpholin-4-yl-1-phenylethyl]-1H-thieno[2,3-c]pyrazole-5-carboxamide], the IC50 was less than 20 nM.

With `CC(C)(NC(=O)c1cc2c(NC(=O)c3ccc(N4CCOCC4)cc3)n[nH]c2s1)c1cccc(F)c1` [Compound 149, 3-(4-Morpholin-4-yl-benzoylamino)-1H-thieno[2,3-c]pyrazole-5-carboxylic acid [1-(3-fluoro-phenyl)-1-methyl-ethyl]-amide], the concentration for half-maximal inhibition (IC50) is less than 20 nM.
